From patent US8487117B2, “Atropisomers of (hydroxyalkyl) pyrrole derivatives” (Exelixis, Inc., priority 2008, dated 2013)

Assays:
[1] = biological target: T1, human mineralocorticoid receptor (hMR), GAL4-hMR receptor (Homo sapiens, UniProt P08235); experiment: GAL4-hMR-LBD luciferase reporter assay in HEK293 cells with 1 nM aldosterone (mineralocorticoid receptor antagonistic action); format: cell-based; details: for IC50: concentration which shows Imax/2, HEK293, GAL4-hMR-LBD, luciferase, with 1 nM aldosterone, read-out: ICmax50; for Imax: maximum value, DMSO control = 0%, 1 nM aldosterone control = 100%, HEK293 luciferase reporter
T1 construct: expressed in transfected cells; host or cells: HEK293
T1 sequence (P08235 726-964 limits assumed): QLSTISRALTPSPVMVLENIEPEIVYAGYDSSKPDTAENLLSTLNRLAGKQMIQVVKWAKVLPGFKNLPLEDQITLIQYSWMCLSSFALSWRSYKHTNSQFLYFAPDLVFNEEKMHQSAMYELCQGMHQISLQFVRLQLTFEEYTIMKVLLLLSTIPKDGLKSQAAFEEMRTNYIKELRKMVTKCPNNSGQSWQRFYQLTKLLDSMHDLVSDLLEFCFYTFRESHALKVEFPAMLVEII
Description: A plasmid pM-hMR-LBD expressing GAL4-hMR receptor, which has a ligand binding domain (LBD, corresponds to approximately 308 amino acids at the carboxy terminus) of human mineralocorticoid receptor (hMR, NM_000901) bonded to a DNA binding domain of yeast transcription factor GAL4 (corresponding to 147 amino acids at the amino terminus), was prepared. Reporter assay was conducted by using a reporter plasmid (such as STRATAGENE CLONING SYSTEMS, pFR-Luc) including a luciferase gene, having a sequence (UAS sequence) which binds to the DNA binding domain of GAL4.
The plasmid pM-hMR-LBD and the reporter plasmid as obtained above were gene transferred into renal cell line HEK293 of human fetus by lipofection. On the next day, cells were collected by trypsin treatment, and were dispensed with DMEM culture medium containing 5% of FBS treated by activated charcoal, to a white 96-well plate (Costar) with the amount of 95 microliter per well.
The Test Compounds were used by dissolving them in dimethyl sulfoxide at a predetermined concentration, and the test compounds suitably diluted with culture media were added to the cells on the white 96-well plate so that the final concentration becomes 0.1%. When adding the Test Compounds, they were accompanied with 1 nM aldosterone. The well group of Control group 1 was added with dimethyl sulfoxide, and the well group of Control group 2 was added with 1 nM aldosterone. After addition, cultivation was carried out overnight.
On the next day, the culture media was removed, and then luciferase substrate (Wako Pure Chemical Industries, Ltd.) was prepared in accordance with the attached document and were added to each well by 50 microliters. Stirring was conducted for approximately 30 minutes, and the amount of luminescence was measured for each well by using Analyst (Molecular Devices), to obtain luciferase activity. A graph which plots relative luciferase activity values, when the luciferase activity value of Control group 1 was taken as 0% and the luciferase activity value of Control group 2 was taken as 100%, for each of the amount of the test compound addition group was made.

[2] = Plasma concentration after intragastric administration to cynomolgus monkey (LC-MS/MS); format: in vivo; details: male cynomolgus monkey, fasted, 3 mg/kg intragastric in 0.5% MC; for AUC: Area under the plasma concentration versus time curve: blood up to 48 h, noncompartment model; for Cmax: po, plasma, read-out: Cmax: Maximum concentration
Description: Cynomolgus monkey (male) was used, and was fasted from the day before the administration of the Test Compound.
Administration samples were prepared by adding 0.5% MC (methyl cellulose) solution to the Test Compound, so that the dose becomes 3 mg/2 mL/kg. Each of the administration samples was administered intragastrically to the cynomolgus monkey by using a tube. After the samples were administered, approximately 5 mL of 0.5% MC was administered. For each of the administration samples, a group of two cynomolgus monkeys was administered.
With respect to collection of blood, it was conducted by collecting approximately 0.5 mL of blood from femoral vein using a glass syringe treated with heparin, before administration, and 30 minutes, 1, 2, 4, 6, 8, 24 and 48 hours after administration. Blood was centrifuged (1,700×g, 15 min, 4° C.) to obtain plasma. Plasma was stored in a freezer (−20° C.) until pretreatment.
Preparation of standard solution and internal standard (“IS”) solution: Each of the Test Compounds was dissolved in DMSO (dimethyl sulfoxide) to prepare a solution of 10 mM each. Each of the compound solution was diluted with acetonitrile, and thus standard solution was prepared. Further, niflumic acid (Wako Pure Chemical Industries, Ltd.) was dissolved in DMSO at the concentration of 2 mM, followed by dilution with acetonitrile to prepare an IS solution of 2 μM.
Pretreatment of plasma samples: 20 μL of plasma sample was collected, and then 25 μL of purified water, 100 μL of acetonitrile, and 100 μL of methanol was added. For the preparation of a calibration curve, 25 μL of purified water, 20 μL of each of the standard solutions (acetonitrile solution), 80 μL of acetonitrile, and 100 μL of methanol were added to 20 μL of blank plasma. 40 μL of the acetonitrile solution of IS was added to all of the samples, and then the samples were stirred, filtered by suction using Captiva filter plate (Varian, Inc.), and then the filtrate was used as the sample for LC-MS/MS analysis.
Quantitative Determination of Test Compound: Concentration in plasma was analyzed by LC-MS/MS method for each Test Compound.
[HPLC Analysis Conditions]
• HPLC: WATERS 2795 (Waters Corporation); • Column: CAPCELL PAK C8, 2.0 mm I.D.×50 mm, 5 μm (Shiseido Co., Ltd.) • Mobile Phase: A=5 mM ammonium acetate aqueous solution, B=acetonitrile [MS/MS Analysis Conditions] • MS: Quattro micro API (Waters Corporation) • Ionization Method: Electrospray Ionization (“ESI”) • Ionization Mode: Positive • Detection Mode: MRM • Analysis: Pharmacokinetic parameter was calculated from concentration of each of the drugs in plasma, by using WinNonlin Professional (Ver. 4.0.1, Pharsight Corporation). Here, noncompartment model was used as the model for parameter calculation. (Results)

Compound | IC50 [1] [nM] | Imax [1] [%] | AUC: Area under the plasma concentration versus time curve [2] [µg·h/mL] | Cmax [2] [ng/mL]
Cc1c(C(=O)Nc2ccc(S(C)(=O)=O)cc2)cn([C@H](C)[C@H](C)O)c1-c1ccccc1C(F)(F)F (single isomer, unassigned) [Example 1-isomer B] | > 1000 | – | – | –
Cc1c(C(=O)Nc2ccc(S(C)(=O)=O)cc2)cn([C@H](C)[C@H](C)O)c1-c1ccc(Cl)cc1C(F)(F)F (single isomer, unassigned) [Example 3-isomer B] | > 1000 | – | – | –
Cc1c(C(=O)Nc2ccc(S(C)(=O)=O)cc2)cn([C@H](C)[C@H](C)O)c1-c1ccc(F)cc1C(F)(F)F [Example 2, 5-[4-Fluoro-2-(trifluoromethyl)phenyl]-1-[(1R,2S)-2-hydroxy-1-methylpropyl]-4-methyl-N-[4-(methylsulfonyl)phenyl]-1H-pyrrole-3-carboxamide] | 6.2 | 88 | – | –
Cc1c(C(=O)Nc2ccc(S(C)(=O)=O)cc2)cn([C@H](C)[C@H](C)O)c1-c1ccc(F)cc1Cl [Example 4, 5-(2-Chloro-4-fluorophenyl)-1-[(1R,2S)-2-hydroxy-1-methylpropyl]-4-methyl-N-[4-(methylsulfonyl)phenyl]-1H-pyrrole-3-carboxamide] | 10 | 106 | – | –
Cc1c(C(=O)Nc2ccc(S(C)(=O)=O)cc2)cn([C@H](C)[C@H](C)O)c1-c1ccc(F)cc1C(F)(F)F (single isomer, unassigned) [Example 2-isomer A] | 3.8 | 103 | 30.32 | 1280
Cc1c(C(=O)Nc2ccc(S(C)(=O)=O)cc2)cn([C@H](C)[C@H](C)O)c1-c1ccc(Cl)cc1C(F)(F)F (single isomer, unassigned) [Example 3-isomer A] | 4.6 | 108 | 42.49 | 1440
Cc1c(C(=O)Nc2ccc(S(C)(=O)=O)cc2)cn([C@H](C)[C@H](C)O)c1-c1ccccc1C(F)(F)F (single isomer, unassigned) [Example 1-isomer A] | 2.9 | 117 | – | –

More lines, now with the values ahead:

IC50 [1] [nM] | Imax [1] [%] | AUC: Area under the plasma concentration versus time curve [2] [µg·h/mL] | Cmax [2] [ng/mL] | Compound
5.3 | 105 | 4.09 | 230 | Cc1c(C(=O)Nc2ccc(S(C)(=O)=O)cc2)cn(CCO)c1-c1ccccc1C(F)(F)F (racemic) [Comparative compound, 1-(2-hydroxyethyl)-4-methyl-N-[4-(methylsulfonyl)phenyl]-5-[2-(trifluoromethyl)phenyl]-1H-pyrrole-3-carboxamide, reference compound]
6.7 | 95 | – | – | Cc1c(C(=O)Nc2ccc(S(C)(=O)=O)cc2)cn([C@H](C)[C@H](C)O)c1-c1ccc(Cl)cc1C(F)(F)F (atropisomer, axis not shown) [Example 3, 5-[4-Chloro-2-(trifluoromethyl)phenyl]-1-[(1R,2S)-2-hydroxy-1-methylpropyl]-4-methyl-N-[4-(methylsulfonyl)phenyl]-1H-pyrrole-3-carboxamide]
> 1000 | – | – | – | Cc1c(C(=O)Nc2ccc(S(C)(=O)=O)cc2)cn([C@H](C)[C@H](C)O)c1-c1ccc(F)cc1C(F)(F)F (single isomer, unassigned) [Example 2-isomer B]
6.6 | 115 | – | – | Cc1c(C(=O)Nc2ccc(S(C)(=O)=O)cc2)cn([C@H](C)[C@H](C)O)c1-c1ccccc1C(F)(F)F [Example 1, 1-[(1R,2S)-2-Hydroxy-1-methylpropyl]-4-methyl-N-[4-(methylsulfonyl)phenyl]-5-[2-(trifluoromethyl)phenyl]-1H-pyrrole-3-carboxamide]
11 | 103 | – | – | Cc1c(C(=O)Nc2ccc(S(C)(=O)=O)cc2)cn([C@H](C)[C@H](C)O)c1-c1ccc(F)cc1Cl (single isomer, unassigned) [Example 4-isomer A]
> 1000 | – | – | – | Cc1c(C(=O)Nc2ccc(S(C)(=O)=O)cc2)cn([C@H](C)[C@H](C)O)c1-c1ccc(F)cc1Cl (single isomer, unassigned) [Example 4-isomer B]
